Results reported in ChEMBL document CHEMBL4342475, “Structure-Bioactivity Relationships of Lapatinib Derived Analogs against Schistosoma mansoni” (ACS Med Chem Lett, 2020).
Converted amounts (≈) assume the structure as drawn. The source made the active and inactive calls. The rule behind the calls is not given here.

Test system: Schistosoma mansoni
Experiment: Antiparasitic activity against Schistosoma mansoni infected in Hamster assessed as severity score at 10 uM incubated for 1 hr
Type: functional, organism-based
Details: not given

SMILES	Activity
CN1CCN(c2ncc(-c3ccc4c(NCCN5CCCC5)ccnc4c3)cn2)CC1	inactive
CN1CCN(c2ncc(-c3ccc4c(NCC5CCOCC5)ccnc4c3)cn2)CC1	inactive
CCCN1CCCN(c2ncc(-c3ccc4c(Nc5cnccn5)ccnc4c3)cn2)CC1	inactive
CN1CCCN(c2ncc(-c3ccc4c(Nc5ccncn5)ccnc4c3)cn2)CC1	inactive
Cc1cc2c(Nc3cnccn3)ccnc2cc1-c1cnc(N2CCN(C)CC2)nc1	inactive
O=C(O)CN1CCN(c2ncc(-c3ccc4c(Nc5cnccn5)ccnc4c3)cn2)CC1	inactive
CCN1CCN(c2ncc(-c3ccc4c(Nc5cnccn5)ccnc4c3)cn2)CC1	inactive
CN1CCN(c2ncc(-c3ccc4c(N[C@@H]5CCCC[C@H]5O)ccnc4c3)cn2)CC1	inactive
CN1CCCN(c2ncc(-c3ccc4c(c3)ncc3c5ccccc5[nH]c43)cn2)CC1	inactive
CN1CCCN(S(=O)(=O)c2ccc(-c3ccc4c(Nc5ccc(Cl)cn5)ccnc4c3)cc2)CC1	inactive
Cc1c(-c2cnc(N3CCN(C)CC3)nc2)ccc2c(Nc3cnccn3)ccnc12	inactive
COc1ccc(NC(=O)c2ccc(-c3cccc(N4CCOCC4)c3)cc2N)cc1Cl	inactive
O=C(O)C1CCCN1c1ncc(-c2ccc3c(Nc4cnccn4)ccnc3c2)cn1 (configuration not stated)	inactive
c1cc(-c2ccc3c(c2)ncc2c4ccccc4[nH]c32)cc(N2CCOCC2)c1	inactive
CN1C[C@H]2C[C@@H]1CN2c1ncc(-c2ccc3c(Nc4cnccn4)ccnc3c2)cn1	inactive
CCCN1CCN(c2ncc(-c3ccc4c(Nc5cnccn5)ccnc4c3)cn2)CC1	inactive
COc1ccc(Nc2ccnc3cc(-c4ccc(S(=O)(=O)N5CCCN(C)CC5)cc4)ccc23)cc1Cl	inactive

Test system: Schistosoma mansoni
Experiment: Antiparasitic activity against Schistosoma mansoni infected in Hamster assessed as severity score at 10 uM incubated for 5 hrs
Type: functional, organism-based
Details: not given

SMILES	Activity
COc1ccc(NC(=O)c2ccc(-c3cccc(N4CCOCC4)c3)cc2O)cc1Cl	inactive
CCCN1CCCN(c2ncc(-c3cc4nccc(Nc5cnccn5)c4cc3C)cn2)CC1	inactive
CN1CCN(c2ncc(-c3ccc4c(NCCN5CCCC5)ccnc4c3)cn2)CC1	inactive
CN1CCN(c2ncc(-c3ccc4c(NCC5CCOCC5)ccnc4c3)cn2)CC1	inactive
CCCN1CCCN(c2ncc(-c3ccc4c(Nc5cnccn5)ccnc4c3)cn2)CC1	inactive
CN1CCCN(c2ncc(-c3ccc4c(Nc5ccncn5)ccnc4c3)cn2)CC1	inactive
O=C(O)CN1CCN(c2ncc(-c3ccc4c(Nc5cnccn5)ccnc4c3)cn2)CC1	inactive
CCN1CCN(c2ncc(-c3ccc4c(Nc5cnccn5)ccnc4c3)cn2)CC1	inactive
CN1CCN(c2ncc(-c3ccc4c(N[C@@H]5CCCC[C@H]5O)ccnc4c3)cn2)CC1	inactive
CN1CCCN(c2ncc(-c3ccc4c(c3)ncc3c5ccccc5[nH]c43)cn2)CC1	inactive
CN1CCCN(S(=O)(=O)c2ccc(-c3ccc4c(Nc5ccc(Cl)cn5)ccnc4c3)cc2)CC1	inactive
Cc1c(-c2cnc(N3CCN(C)CC3)nc2)ccc2c(Nc3cnccn3)ccnc12	inactive
CCN1CCCN(c2ncc(-c3cc4nccc(Nc5cnccn5)c4cc3C)cn2)CC1	Active
COc1ccc(NC(=O)c2ccc(-c3cccc(N4CCOCC4)c3)cc2N)cc1Cl	inactive
O=C(O)C1CCCN1c1ncc(-c2ccc3c(Nc4cnccn4)ccnc3c2)cn1 (configuration not stated)	inactive
Cc1ccc2[nH]c3c4ccc(-c5cnc(N6CCCN(C)CC6)nc5)cc4ncc3c2c1	Active
c1cc(-c2ccc3c(c2)ncc2c4ccccc4[nH]c32)cc(N2CCOCC2)c1	inactive
CN1C[C@H]2C[C@@H]1CN2c1ncc(-c2ccc3c(Nc4cnccn4)ccnc3c2)cn1	inactive
CCCN1CCN(c2ncc(-c3ccc4c(Nc5cnccn5)ccnc4c3)cn2)CC1	inactive
COc1ccc(Nc2ccnc3cc(-c4ccc(S(=O)(=O)N5CCCN(C)CC5)cc4)ccc23)cc1Cl	inactive

Test system: Schistosoma mansoni
Experiment: Antiparasitic activity against Schistosoma mansoni infected in Hamster assessed as severity score at 10 uM incubated for 24 hrs
Type: functional, organism-based
Details: not given

SMILES	Activity
CN1CCN(c2ncc(-c3ccc4c(NCCN5CCCC5)ccnc4c3)cn2)CC1	inactive
CN1CCN(c2ncc(-c3ccc4c(NCC5CCOCC5)ccnc4c3)cn2)CC1	inactive
CCCN1CCCN(c2ncc(-c3ccc4c(Nc5cnccn5)ccnc4c3)cn2)CC1	inactive
CN1CCCN(c2ncc(-c3ccc4c(Nc5ccncn5)ccnc4c3)cn2)CC1	inactive
Cc1cc2c(Nc3cnccn3)ccnc2cc1-c1cnc(N2CCN(C)CC2)nc1	Active
O=C(O)CN1CCN(c2ncc(-c3ccc4c(Nc5cnccn5)ccnc4c3)cn2)CC1	inactive
CCN1CCN(c2ncc(-c3ccc4c(Nc5cnccn5)ccnc4c3)cn2)CC1	inactive
CN1CCN(c2ncc(-c3ccc4c(N[C@@H]5CCCC[C@H]5O)ccnc4c3)cn2)CC1	inactive
CN1CCCN(c2ncc(-c3ccc4c(c3)ncc3c5ccccc5[nH]c43)cn2)CC1	inactive
CN1CCCN(S(=O)(=O)c2ccc(-c3ccc4c(Nc5ccc(Cl)cn5)ccnc4c3)cc2)CC1	inactive
Cc1c(-c2cnc(N3CCN(C)CC3)nc2)ccc2c(Nc3cnccn3)ccnc12	inactive
CCN1CCCN(c2ncc(-c3cc4nccc(Nc5cnccn5)c4cc3C)cn2)CC1	Active
COc1ccc(NC(=O)c2ccc(-c3cccc(N4CCOCC4)c3)cc2N)cc1Cl	inactive
O=C(O)C1CCCN1c1ncc(-c2ccc3c(Nc4cnccn4)ccnc3c2)cn1 (configuration not stated)	inactive
Cc1ccc2[nH]c3c4ccc(-c5cnc(N6CCCN(C)CC6)nc5)cc4ncc3c2c1	Active
c1cc(-c2ccc3c(c2)ncc2c4ccccc4[nH]c32)cc(N2CCOCC2)c1	inactive
CN1C[C@H]2C[C@@H]1CN2c1ncc(-c2ccc3c(Nc4cnccn4)ccnc3c2)cn1	inactive
CCCN1CCN(c2ncc(-c3ccc4c(Nc5cnccn5)ccnc4c3)cn2)CC1	inactive
COc1ccc(Nc2ccnc3cc(-c4ccc(S(=O)(=O)N5CCCN(C)CC5)cc4)ccc23)cc1Cl	inactive

Test system: Schistosoma mansoni
Experiment: Antiparasitic activity against Schistosoma mansoni infected in Hamster assessed as severity score at 10 uM incubated for 48 hrs
Type: functional, organism-based
Details: not given

SMILES	Activity
COc1ccc(NC(=O)c2ccc(-c3cccc(N4CCOCC4)c3)cc2O)cc1Cl	Active
CCCN1CCCN(c2ncc(-c3cc4nccc(Nc5cnccn5)c4cc3C)cn2)CC1	inactive
CN1CCN(c2ncc(-c3ccc4c(NCCN5CCCC5)ccnc4c3)cn2)CC1	inactive
CN1CCN(c2ncc(-c3ccc4c(NCC5CCOCC5)ccnc4c3)cn2)CC1	inactive
CCCN1CCCN(c2ncc(-c3ccc4c(Nc5cnccn5)ccnc4c3)cn2)CC1	inactive
CN1CCCN(c2ncc(-c3ccc4c(Nc5ccncn5)ccnc4c3)cn2)CC1	inactive
Cc1cc2c(Nc3cnccn3)ccnc2cc1-c1cnc(N2CCN(C)CC2)nc1	Active
O=C(O)CN1CCN(c2ncc(-c3ccc4c(Nc5cnccn5)ccnc4c3)cn2)CC1	inactive
CCN1CCN(c2ncc(-c3ccc4c(Nc5cnccn5)ccnc4c3)cn2)CC1	inactive
CN1CCN(c2ncc(-c3ccc4c(N[C@@H]5CCCC[C@H]5O)ccnc4c3)cn2)CC1	inactive
CN1CCCN(c2ncc(-c3ccc4c(c3)ncc3c5ccccc5[nH]c43)cn2)CC1	Active
CN1CCCN(S(=O)(=O)c2ccc(-c3ccc4c(Nc5ccc(Cl)cn5)ccnc4c3)cc2)CC1	inactive
Cc1c(-c2cnc(N3CCN(C)CC3)nc2)ccc2c(Nc3cnccn3)ccnc12	inactive
CCN1CCCN(c2ncc(-c3cc4nccc(Nc5cnccn5)c4cc3C)cn2)CC1	Active
COc1ccc(NC(=O)c2ccc(-c3cccc(N4CCOCC4)c3)cc2N)cc1Cl	inactive
O=C(O)C1CCCN1c1ncc(-c2ccc3c(Nc4cnccn4)ccnc3c2)cn1 (configuration not stated)	inactive
Cc1ccc2[nH]c3c4ccc(-c5cnc(N6CCCN(C)CC6)nc5)cc4ncc3c2c1	Active
c1cc(-c2ccc3c(c2)ncc2c4ccccc4[nH]c32)cc(N2CCOCC2)c1	inactive
CN1C[C@H]2C[C@@H]1CN2c1ncc(-c2ccc3c(Nc4cnccn4)ccnc3c2)cn1	inactive
CCCN1CCN(c2ncc(-c3ccc4c(Nc5cnccn5)ccnc4c3)cn2)CC1	Active
COc1ccc(Nc2ccnc3cc(-c4ccc(S(=O)(=O)N5CCCN(C)CC5)cc4)ccc23)cc1Cl	inactive

Test system: not listed separately
Experiment: Cytotoxicity against human HepG2 cells assessed as reduction in cell viability 48 hrs by MTT assay
Type: cell-based
Details: read-out: TC50

SMILES	CC50 at 48 h [µM]
COc1ccc(NC(=O)c2ccc(-c3cccc(N4CCOCC4)c3)cc2O)cc1Cl	35
CCCN1CCCN(c2ncc(-c3cc4nccc(Nc5cnccn5)c4cc3C)cn2)CC1	7.6
CCCN1CCCN(c2ncc(-c3ccc4c(Nc5cnccn5)ccnc4c3)cn2)CC1	17
CN1CCCN(c2ncc(-c3ccc4c(Nc5ccncn5)ccnc4c3)cn2)CC1	> 37
O=C(O)CN1CCN(c2ncc(-c3ccc4c(Nc5cnccn5)ccnc4c3)cn2)CC1	> 30
CN1CCCN(c2ncc(-c3ccc4c(c3)ncc3c5ccccc5[nH]c43)cn2)CC1	7.4
CN1CCCN(S(=O)(=O)c2ccc(-c3ccc4c(Nc5ccc(Cl)cn5)ccnc4c3)cc2)CC1	1.8
CCN1CCCN(c2ncc(-c3cc4nccc(Nc5cnccn5)c4cc3C)cn2)CC1	4.7
COc1ccc(NC(=O)c2ccc(-c3cccc(N4CCOCC4)c3)cc2N)cc1Cl	35
Cc1ccc2[nH]c3c4ccc(-c5cnc(N6CCCN(C)CC6)nc5)cc4ncc3c2c1	4.7
c1cc(-c2ccc3c(c2)ncc2c4ccccc4[nH]c32)cc(N2CCOCC2)c1	40
COc1ccc(Nc2ccnc3cc(-c4ccc(S(=O)(=O)N5CCCN(C)CC5)cc4)ccc23)cc1Cl	11

Test system: not listed separately
Experiment: Aqueous solubility of compound incubated for 24 hrs by LC-MS/MS analysis
Type: physicochemical
Details: aqueous

SMILES	solubility at 24 h [µM]
Cc1cc2c(Nc3cnccn3)ccnc2cc1-c1cnc(N2CCN(C)CC2)nc1	[…]

Same assay, conditions: buffer, 24 h

SMILES	solubility [µM]
CCCN1CCCN(c2ncc(-c3cc4nccc(Nc5cnccn5)c4cc3C)cn2)CC1	480 (≈ 218 µg/mL)
CCN1CCCN(c2ncc(-c3cc4nccc(Nc5cnccn5)c4cc3C)cn2)CC1	790 (≈ 348 µg/mL)

Test system: not listed separately
Experiment: Protein binding in human plasma at 1 uM by LC-MS/MS analysis
Type: ADME, cell-free
Details: not given

SMILES	PPB [%]
CCCN1CCCN(c2ncc(-c3cc4nccc(Nc5cnccn5)c4cc3C)cn2)CC1	88
CCN1CCCN(c2ncc(-c3cc4nccc(Nc5cnccn5)c4cc3C)cn2)CC1	84

Test system: not listed separately
Experiment: Metabolic stability in human liver microsomes assessed as intrinsic clearance by LC-MS/MS analysis
Type: ADME, Microsome
Details: not given

SMILES	intrinsic clearance [µL/min/mg]
CCCN1CCCN(c2ncc(-c3cc4nccc(Nc5cnccn5)c4cc3C)cn2)CC1	300
Cc1cc2c(Nc3cnccn3)ccnc2cc1-c1cnc(N2CCN(C)CC2)nc1	130
CCN1CCCN(c2ncc(-c3cc4nccc(Nc5cnccn5)c4cc3C)cn2)CC1	300
